Measured values taken from the NIST ThermoML archive (doi:10.1021/je300603d).

Assays:
[1] = mn = molality of the nth substance listed, in mol/kg; conditions: 101 kPa, Liquid, m2 = 0; for electrical conductivity: Alternating current cell with electrodes; for viscosity: Falling or rolling sphere viscometry; for mass density: Vibrating tube method
[2] = 101 kPa, Liquid; for electrical conductivity: Alternating current cell with electrodes; for viscosity: Falling or rolling sphere viscometry; for mass density: Vibrating tube method

CCCCn1cc[n+](C)c1.F[B-](F)(F)F [1-butyl-3-methylimidazolium tetrafluoroborate] + F[B-](F)(F)F.[Na+]
[1]
Conditions | electrical conductivity [S/m] | mass density [kg/m3] | viscosity [mPa·s]
238.15 K | 0.00095 | – | –
258.15 K | 0.0227 | – | –
278.15 K | 0.113 | 1216.3 | 384.5
288.15 K | – | 1209 | 197.7
298.15 K | 0.353 | 1201.8 | 112.3
308.15 K | – | 1194.6 | 68.89
318.15 K | 0.826 | 1187.6 | 45.36
328.15 K | – | 1180.6 | 31.49
338.15 K | 1.548 | 1173.6 | 21.99
348.15 K | – | 1166.7 | 16.54
358.15 K | 2.53 | 1159.9 | 12.84
378.15 K | 3.74 | – | –
398.15 K | 5.13 | – | –
418.15 K | 6.68 | – | –
438.15 K | 8.36 | – | –
458.15 K | 10.13 | – | –

CCCCn1cc[n+](C)c1.F[B-](F)(F)F [1-butyl-3-methylimidazolium tetrafluoroborate]
[2]
Conditions | electrical conductivity [S/m] | mass density [kg/m3] | viscosity [mPa·s]
238.15 K | 0.00095 | – | –
258.15 K | 0.0227 | – | –
278.15 K | 0.113 | 1216.3 | 384.5
288.15 K | – | 1209 | 197.7
298.15 K | 0.353 | 1201.8 | 112.3
308.15 K | – | 1194.6 | 68.89
318.15 K | 0.826 | 1187.6 | 45.36
328.15 K | – | 1180.6 | 31.49
338.15 K | 1.548 | 1173.6 | 21.99
348.15 K | – | 1166.7 | 16.54
358.15 K | 2.53 | 1159.9 | 12.84
378.15 K | 3.74 | – | –
398.15 K | 5.13 | – | –
418.15 K | 6.68 | – | –
438.15 K | 8.36 | – | –
458.15 K | 10.13 | – | –
